Measurements from patent publication US20230131899A1, “INHIBITORS OF MICROBIALLY INDUCED AMYLOID” (Axial Therapeutics, Inc., priority 2020, published 2023).
Where two headings read alike, the source gives them in different places.

Biological target: T1, E. coli CsgA (Escherichia coli, UniProt P28307)
T1 construct: made in house; host or cells: E. coli NEB 3016 slyD::kan, pET11d
Experiment: In vitro ThioflavinT assay of CsgA aggregation (CsgA ThT Assay)
Format: biochemical
Conditions: 1005 minutes; for remaining activity at 25 µM: compound 25 μM; for remaining activity at 100 µM: compound 100 μM
In short: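 Purified C-terminal His-tagged CsgA, monomerised by desalting and 30-kDa filtration, at 2-20 μM with 20-40 μM ThT in 50 mM potassium phosphate pH 7.3, 1% DMSO, compounds 3.125-200 uM; room temperature, fluorescence (ex 438/em 495 nm) read every 15 min. Background-subtracted signal expressed as percent inhibition versus vehicle at 6-6.5 or 8-9 h, or as percent control AUC.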

[1] = read-out: CsgA ThT Assay (10 μM CsgA) % Control AUC at 1005 minutes, 25 μM (activity range), CsgA 10 μM, black plates, class symbol
[2] = read-out: CsgA ThT Assay (10 μM CsgA) % Control AUC at 1005 minutes, 25 μM, mean AUC as % of DMSO control, CsgA 10 μM, black plates
[3] = read-out: CsgA ThT Assay (10 μM CsgA) % Control AUC at 1005 minutes, 100 μM (activity range), CsgA 10 μM, black plates, class symbol
[4] = read-out: CsgA ThT Assay (10 μM CsgA) % Control AUC at 1005 minutes, 100 μM, mean AUC as % of DMSO control, CsgA 10 μM, black plates

T1 sequence (P28307 23-151): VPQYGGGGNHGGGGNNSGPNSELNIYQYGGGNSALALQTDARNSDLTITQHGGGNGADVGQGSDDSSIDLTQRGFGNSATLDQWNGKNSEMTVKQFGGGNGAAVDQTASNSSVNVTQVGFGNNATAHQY

With `O=C(O)CN1CC(C(=O)O)n2c(c(-c3cccc(C(F)(F)F)c3)c(Cc3cccc4ccccc34)cc2=O)S1(=O)=O` (stereo not drawn) [Compound 018, 2-(carboxymethyl)-8-(naphthalen-1-ylmethyl)-6-oxo-9-(3-(trifluoromethyl)phenyl)-3,4-dihydro-2H,6H-pyrido[1,2-e][1,2,5]thiadiazine-4-carboxylic acid 1,1-dioxide] the remaining activity at 25 µM [1] was over 60%, the remaining activity at 25 µM [2] was 95% and the remaining activity at 100 µM [3] was 31 to 60%. For the same molecule, the remaining activity at 100 µM [4] was 60%.
`O=C(O)C1CSc2c(-c3cccc(C(F)(F)F)c3)c(Cc3cccc4ccccc34)nc(=O)n21` (stereo not drawn) [Compound 022, 7-(naphthalen-1-ylmethyl)-5-oxo-8-(3-(trifluoromethyl)phenyl)-2,3-dihydro-5H-thiazolo[3,2-c]pyrimidine-3-carboxylic acid] showed a remaining activity at 25 µM [1] of over 60%, a remaining activity at 25 µM [2] of 70% and a remaining activity at 100 µM [3] of 11 to 31%. For the same molecule, the remaining activity at 100 µM [4] was 23%.
For `CN(C)Cc1c(Cc2cccc3ccccc23)c(-c2cccc(C(F)(F)F)c2)c2n(c1=O)C(C(=O)O)CS2` (stereo not drawn) [Compound 075, 6-((dimethylamino)methyl)-7-(naphthalen-1-ylmethyl)-5-oxo-8-(3-(trifluoromethyl)phenyl)-2,3-dihydro-5H-thiazolo[3,2-a]pyridine-3-carboxylic acid], the remaining activity at 25 µM [1] was over 60%, the remaining activity at 25 µM [2] was 118% and the remaining activity at 100 µM [3] was over 60%. It also gave a remaining activity at 100 µM [4] of 117%.
